ChEMBL document CHEMBL5537115, “New broad-spectrum and potent antibacterial agents with dual-targeting mechanism: Promoting FtsZ polymerization and disrupting bacterial membranes” (Eur J Med Chem, 2024)
Converted amounts (≈) assume the structure as drawn.

Columns and labels:
Format in all cases: functional
Bacillus pumilus = experiment: Antibacterial activity against penicillin-susceptible Bacillus pumilus CMCC63202 assessed as bacterial growth inhibition incubated for 20 hrs by CLSI based broth microdilution method
Streptococcus pyogenes [1] = experiment: Antibacterial activity against erythromycin-resistant Streptococcus pyogenes 2 clinical isolate assessed as bacterial growth inhibition incubated for 20 hrs by CLSI based broth microdilution method
Staphylococcus aureus [2] = experiment: Antibacterial activity against penicillin-resistant Staphylococcus aureus ATCC31007 assessed as bacterial growth inhibition incubated for 20 hrs by CLSI based broth microdilution method
Acinetobacter baumannii = experiment: Antibacterial activity against Acinetobacter baumannii ATCC19606 assessed as bacterial growth inhibition incubated for 20 hrs by CLSI based broth microdilution method
Staphylococcus aureus [3] = experiment: Antibacterial activity against Staphylococcus aureus clinical isolate assessed as bacterial growth inhibition incubated for 20 hrs by CLSI based broth microdilution method
Enterococcus faecium [4] = experiment: Antibacterial activity against vancomycin-resistant Enterococcus faecium ATCC51559 assessed as bacterial growth inhibition incubated for 20 hrs by CLSI based broth microdilution method
Bacillus subtilis = experiment: Antibacterial activity against penicillin-susceptible Bacillus subtilis ATCC9372 assessed as bacterial growth inhibition incubated for 20 hrs by CLSI based broth microdilution method
[5] = tested on: Staphylococcus epidermidis; experiment: Antibacterial activity against penicillin-resistant Staphylococcus epidermidis clinical isolate assessed as bacterial growth inhibition incubated for 20 hrs by CLSI based broth microdilution method
Staphylococcus aureus [6] = experiment: Antibacterial activity against erythromycin-susceptible Staphylococcus aureus ATCC25923 assessed as bacterial growth inhibition incubated for 20 hrs by CLSI based broth microdilution method
Staphylococcus aureus [7] = experiment: Antibacterial activity against methicillin-resistant Staphylococcus aureus ATCC43300 assessed as bacterial growth inhibition incubated for 20 hrs by CLSI based broth microdilution method
Escherichia coli [8] = experiment: Antibacterial activity against wild-type Escherichia coli BW25113 assessed as bacterial growth inhibition incubated for 20 hrs by CLSI based broth microdilution method
Streptococcus pyogenes [9] = experiment: Antibacterial activity against erythromycin-susceptible Streptococcus pyogenes 1 assessed as bacterial growth inhibition incubated for 20 hrs by CLSI based broth microdilution method
Escherichia coli [10] = experiment: Antibacterial activity against penicillin-susceptible Escherichia coli ATCC25922 assessed as bacterial growth inhibition incubated for 20 hrs by CLSI based broth microdilution method
Enterococcus faecalis [11] = experiment: Antibacterial activity against vancomycin-susceptible Enterococcus faecalis ATCC29212 assessed as bacterial growth inhibition incubated for 20 hrs by CLSI based broth microdilution method
Klebsiella pneumoniae = experiment: Antibacterial activity against Klebsiella pneumoniae ATCC BAA-1902 assessed as bacterial growth inhibition incubated for 20 hrs by CLSI based broth microdilution method
Enterococcus faecalis [12] = experiment: Antibacterial activity against vancomycin-resistant Enterococcus faecalis ATCC51299 assessed as bacterial growth inhibition incubated for 20 hrs by CLSI based broth microdilution method
Enterococcus faecium [13] = experiment: Antibacterial activity against vancomycin-susceptible Enterococcus faecium ATCC19434 assessed as bacterial growth inhibition incubated for 20 hrs by CLSI based broth microdilution method

| SMILES | MIC (Bacillus pumilus) [µg/mL] | MIC (Streptococcus pyogenes [1]) [µg/mL] | MIC (Staphylococcus aureus [2]) [µg/mL] | MIC (Acinetobacter baumannii) [µg/mL] | MIC (Staphylococcus aureus [3]) [µg/mL] | MIC (Enterococcus faecium [4]) [µg/mL] | MIC (Bacillus subtilis) [µg/mL] | MIC [5] [µg/mL] | MIC (Staphylococcus aureus [6]) [µg/mL] | MIC (Staphylococcus aureus [7]) [µg/mL] | MIC (Escherichia coli [8]) [µg/mL] | MIC (Streptococcus pyogenes [9]) [µg/mL] | MIC (Escherichia coli [10]) [µg/mL] | MIC (Enterococcus faecalis [11]) [µg/mL] | MIC (Klebsiella pneumoniae) [µg/mL] | MIC (Enterococcus faecalis [12]) [µg/mL] | MIC (Enterococcus faecium [13]) [µg/mL] |
| --- | --- | --- | --- | --- | --- | --- | --- | --- | --- | --- | --- | --- | --- | --- | --- | --- | --- |
| CN(C)c1ccc(/C=C/c2cc(-c3ccccc3)[n+](C)cc2-c2ccccc2)cc1.[I-] | 8 | 8 | 8 | 8 | 1 | 16 | 1 | 8 | 0.5 | 2 | 64 | 8 | 32 | 16 | > 64 | 16 | 16 |
| COc1ccc2cc3[n+](cc2c1OC)CCc1cc2c(cc1-3)OCO2 [BERBERINE] | > 64 | > 64 | > 64 | > 64 | 64 | > 64 | > 64 | > 64 | 64 | > 64 | > 64 | > 64 | > 64 | > 64 | > 64 | > 64 | > 64 |
| C[n+]1cc(-c2ccccc2)cc(/C=C/c2ccc(C(F)(F)F)cc2)c1-c1ccccc1.[I-] | 8 | 2 | 16 | 16 | 2 | 8 | 2 | 8 | 1 | 4 | > 64 | 4 | > 64 | 8 | > 64 | 16 | 16 |
| C[n+]1cc(-c2ccccc2)c(/C=C/c2ccc(N)cc2)cc1-c1ccccc1.[I-] | 16 | 16 | 64 | 32 | 16 | 64 | 4 | 32 | 2 | 16 | > 64 | 4 | > 64 | 64 | > 64 | > 64 | > 64 |
| CCc1ccc(/C=C/c2cc(-c3ccccc3)c[n+](C)c2-c2ccccc2)cc1.[I-] | 8 | 8 | 4 | 32 | 2 | 16 | 4 | 16 | 1 | 8 | > 64 | 4 | > 64 | 16 | 16 | 16 | 16 |
| NC(=O)c1c(F)ccc(OCc2nc3cc(Cl)cnc3s2)c1F | 0.5 (≈ 1.41 µM) | > 64 | 2 (≈ 5.62 µM) | > 64 | 1 (≈ 2.81 µM) | > 64 | 0.5 (≈ 1.41 µM) | > 64 | 1 (≈ 2.81 µM) | 1 (≈ 2.81 µM) | > 64 | > 64 | > 64 | > 64 | > 64 | > 64 | > 64 |
| C[n+]1cc(-c2ccccc2)c(/C=C/c2ccc(O)cc2)cc1-c1ccc(C(C)(C)C)cc1.[I-] | 4 | 2 | 4 | 8 | 0.5 | 4 | 1 | 4 | 0.125 | 1 | 64 | 2 | 64 | 4 | > 64 | 4 | 4 |
| CCCOc1ccc(/C=C/c2cc(-c3ccccc3)c[n+](C)c2-c2ccccc2)cc1.[I-] | 4 | 4 | 4 | 8 | 0.5 | 8 | 2 | 4 | 0.5 | 2 | 64 | 2 | 32 | 8 | 8 | 8 | 8 |
